Values after ≈ are worked out from the molar mass of the structure shown. Where two headings read alike, the source gives them in different places.
Tests used:
[1] = tested on: clinical Mycobacterium tuberculosis strains (HrRr: 77#, 76#, 80#); assay: microbe, parasite or virus in culture; assay type: cell-based; settings: for MIC: Mycobacterium tuberculosis
[2] = tested on: MDR-MTB isolates LZ94 and LZ99; assay: microbe, parasite or virus in culture; assay type: cell-based, Mycobacterium tuberculosis
[3] = Mycobacterium tuberculosis, read-out: MIC

Q: Cc1ccc2[nH]c3c(c2c1)CCCC3NCc1ccccc1 (stereo not shown) [CAS 118498-98-9, N-benzyl-6-methyl-2,3,4,9-tetrahydro-1H-carbazol-1-amine] was tested. Which “concentration increase required to inhibit the drug resistant strains” value [1] did it give?
A: four-fold

Q: And the MIC [1]?
A: 3.2 µg/mL (≈ 11 µM)

Q: What about the MIC ([1]; strain 76#, HrRr) of the same molecule?
A: 25.6 µg/mL (≈ 88.2 µM)

Q: What about the MIC ([1]; strain 80#, HrRr) of the same molecule?
A: 25.6 µg/mL (≈ 88.2 µM)

Q: Which MIC [2, 3] does the source give for CO[C@@H]1[C@@H](OC(=O)c2ccc(C)[nH]2)[C@@H](O)[C@H](Oc2ccc3c(O)c(NC(=O)c4ccc(O)c(CC=C(C)C)c4)c(=O)oc3c2Cl)OC1(C)C [NSC 227186, [(3R,4S,5R,6S)-6-[8-chloro-4-hydroxy-3-[[4-hydroxy-3-(3-methylbut-2-enyl)benzoyl]amino]-2-oxochromen-7-yl]oxy-5-hydroxy-3-methoxy-2,2-dimethyloxan-4-yl]5-methyl-1H-pyrrole-2-carboxylate] here?
A: 0.625 µg/mL (≈ 0.897 µM)

Q: How did the MIC [2] turn out when Cn1ccc(=Nc2ccc(NC(=O)c3ccc(N=c4ccn(C)c5ccc([N+](=O)[O-])cc45)cc3)cc2)cc1 [NSC 260594, 4-[(1-methyl-6-nitroquinolin-4-ylidene)amino]-N-[4-[(1-methylpyridin-4-ylidene)amino]phenyl]benzamide] was run?
A: 1.25 µg/mL (≈ 2.48 µM)

Q: What about the MIC ([2]; Mycobacterium tuberculosis, Table 7 and text, […], read-out: MIC) of the same molecule?
A: 0.625 µg/mL (≈ 1.24 µM)

Q: What about the MIC [2, 3] of the same molecule?
A: 0.625 µg/mL (≈ 1.24 µM)

Q: And the MIC ([2]; Table 7 and text, […], listed as Formula XI)?
A: 1.25 µg/mL (≈ 2.48 µM)

Q: Which MIC ([2]; Mycobacterium tuberculosis) does the source give for CO[C@H]1/C=C/O[C@@]2(C)Oc3c(C)c(O)c4c(O)c(c(/C=N/N5CCN(C)CC5)c(O)c4c3C2=O)NC(=O)/C(C)=C\C=C\[C@H](C)[C@H](O)[C@@H](C)[C@@H](O)[C@@H](C)[C@H](OC(C)=O)[C@@H]1C [Rifampicin, reference compound] here?
A: 2 µg/mL (≈ 2.43 µM)

From patent US11529354B2, “Methods and compositions for the treatment of tuberculosis” (PRESIDENT AND FELLOWS OF HARVARD COLLEGE, priority 2017, dated 2022)
